In article PMC3497310, “Binding of the Phage Display Derived Peptide CaIX-P1 on Human Colorectal Carcinoma Cells Correlates with the Expression of Carbonic Anhydrase IX” (International Journal of Molecular Sciences, 2012):
Where no end group is shown, it is not given here.

Columns and labels:
HCT116 cells [1] = assay: In vitro binding kinetics of 125I-CaIX-P1 at two cell densities; parameters: species or system human; settings: 300,000 vs 2,000,000 cells cultivated 48 h; incubation 10-120 min; serum free medium; uptake as percent applied dose per 10^6 cells; p < 0.05
Protocol: (§1) 300,000 and 2,000,000 human colorectal carcinoma HCT116 and pancreatic carcinoma BxPC3 cells were cultivated in 6-well plates for 48 h. RPMI 1640 medium with 1% BSA was used for cell blocking. Thereafter, 1 mL RPMI 1640 medium containing about 1.0 × 10^6 cpm ^125I-labeled peptide (specific activity ~50 GBq/μmol) was added and cell incubation was carried out for various time periods (10-120 min). To characterize the specificity of radioligand binding, co-incubation with unlabeled CaIX-P1 at various concentrations (10^-4 to 10^-9 mol/L) was performed. After incubation the cells were washed with ice cold PBS and lysed with 0.5 mL NaOH 0.3 mol/L. The lysate was collected and the radioactivity was measured with a γ-counter ([…]; Berthold Technologies). Bound radioactivity, representing the amount of peptide accumulation on HCT116 cells, was calculated as percentage applied dose per 10^6 cells. Binding specificity was further determined using octreotide, HBP-1 and VA131 as negative control competitors at the same concentration as CaIX-P1. All binding and competition experiments were performed in serum free medium in order to avoid peptide degradation by serum proteases.

BxPC3 cells = assay: In vitro binding kinetics of 125I-CaIX-P1 at two cell densities (negative control cells); parameters: species or system human; settings: 300,000 vs 2,000,000 cells cultivated 48 h, incubation 10-120 min, serum free medium
Protocol: as §1

HCT116 cells [2] = assay type: binding, human; settings: 48 h
Protocol: as §1

[3] = serum stability; rapid degradation by serum proteases; cited from earlier work
HCT116 cells [4] = assay: Fluorescence microscopy of cell labeling; assay type: cell-based, human; settings: HCT116 cells grown to high density; 1 h at 37 °C; medium without FCS; 100 μL of 10^-4-10^-5 M stock in 1 mL; after fixation
Protocol: Human colorectal carcinoma HCT116 cells were seeded in culture plates (1,000,000–2,000,000 cells/well in 3 mL medium) containing glass coverslips and were allowed to grow for 48 h. The medium was replaced by 900 μL fresh medium (without FCS) and 100 μL 10^−4–10^−5 M sterilized stock solution of FITC-labeled-CaIX-P1 or fluorescein at the same concentration was added to the cells. The plates were incubated for 1 h at 37 °C. After incubation the cells were washed thrice with 1 mL ice cold PBS (pH 7.4). Subsequently the cells were fixed with 2% formaldehyde in PBS (pH 7.4) at […] for 20 min. This procedure was performed on ice. The cells were washed with ice cold PBS (1 × 600 μL, pH 7.4) and the cover slips were mounted on a slice with DAKO fluorescent medium. Cells were photographed using a Leica DM-RA2 fluorescence microscope. Digitalized figures were processed using standard imaging software (Adobe Photoshop 6.0/Illustrator 9.0).

YNTNHVPLSPKY [^125I-CaIX-P1, CaIX-P1 radiolabeled with 125I using the chloramine T method]
binding of 125I-CaIX-P1 per 10^6 HCT116 cells with increasing cell density (HCT116 cells [1]): significantly increased binding | binding of 125I-CaIX-P1 on BxPC3 cells at different cell densities (BxPC3 cells): strongly decreased binding to the background level

YNTNHVPLSPKY [CaIX-P1]
IC50 (HCT116 cells [2]): 1 to 5 µM | half-life in serum [3]: about 25 min

O=C1OC2(c3ccc(O)cc3Oc3cc(O)ccc32)c2ccccc21 [fluorescein]
fluorescence signal of cells (HCT116 cells [4]): strongly decreased signal to the background level
